≈ marks a conversion by molar mass, not a printed value. Where a SMILES comes first, the peptide text is derived from it. Bridges are numbered along the chain shown (N, C = ends). Where no end group is shown, it is not given here.
Tests used:
[1] = Solubility in DPBS (Table 1); format: physicochemical; details: Dulbecco's phosphate buffered saline; measured as OD (280 nm) at saturation
[2] = biological target: T1, C3 (Homo sapiens, UniProt P01024); assay: KD (Table 1); format: binding
[3] = system: laser-induced choroidal neovascularization (CNV); assay: Laser-induced choroidal neovascularization, nonhuman primate model of wet-type AMD, fluorescein angiography lesion grading; format: in vivo, macaque; details: for CNV lesion size, % of baseline: third Cp50-treated animal (K-2434)
Procedure: The effects of the compstatin analogue Cp50 (described above) were compared vs. vehicle, in a nonhuman primate model of wet-type age-related macular degeneration (AMD). In this model, laser-induced choroidal neovascularization (CNV) was performed in the eyes of macaques.
Laser-induced CNV was performed in both eyes of the macaques, as described below. Two weeks (Day 14) after laser photocoagulation, laser lesions were graded (Grade 1-4) via fluorescein angiograms (FA).
Under ketamine (15 mg/kg, i.m.) and xylazine (2 mg/kg, i.m), on Day 15, the eyes were intravitreally (IVT) injected with either vehicle, or compstatin Cp50. FA measurements were performed on weeks 4, 6, 8 10 and 12 (total of five times), following CNV.
Briefly, under light ketamine (10 mg/kg, i.m.) anesthesia, the pupils were dilated with tropicamide/phenylephrine (Mydrin-P® ophthalmic solution; Santen Pharmaceutical Co., Osaka, Japan). For the laser treatment, the macaques were anesthetized with a combination of ketamine (15 mg/kg, i.m.; Daiichi Sankyo Propharma Co., Tokyo, Japan) and xylazine (2 mg/kg, i.m.; Bayer Yakuhin, Osaka, Japan). A green laser (900 mW output; Green Scan Laser Photocoagulator, GYC-500, Nidek, Co., Gamagori, Japan) was applied to eight spots (about 75 μm, 0.1 s duration) around the macula in a grid pattern. The extent of CNV lesion was assessed using fluorescence angiography (FA) at predetermined time points.
On the day of lesion grading, under light ketamine (10 mg/kg, i.m.) anesthesia, the pupils were dilated with tropicamide/phenylephrine (Mydrin-P® ophthalmic solution), and then the macaques were anesthetized with a combination of ketamine (15 mg/kg, i.m.) and xylazine (2 mg/kg, i.m).
Fluorescence Angiography (FA) was used to check the extent of CNV in the back of the eye. Ten percent sodium fluorescein (Fluorescite®; 10 mg/kg, i.v.; Novartis, Tokyo, Japan) was injected and a fundus camera took pictures of the back of the eye at about 1, 3, and 5 min after i.v. injection.
Following randomization, under ketamine (15 mg/kg, i.m.) and xylazine (2 mg/kg, i.m), on Day 15, the eyes were intravitreally (IVT) injected with 50 μl of either vehicle, or Cp50. Before IVT injection, eyes were treated twice daily for three days with levofloxacin hydrate (0.5%; Cravit®, Santen Pharmaceutical Co.).
Under anesthesia, a solution of tropicamide/phenylephrine HCl (Mydrin®-P), levofloxacin hydrate (0.5%; Santen Pharmaceutical Co.), and oxybuprocaine HCl (0.4%; Santen Pharmaceutical Co.) was instilled before dosing.

[4] = biological target: T1, C3; details: background statement; cited from earlier work
Target sequence in this assay (P01024 23-1663): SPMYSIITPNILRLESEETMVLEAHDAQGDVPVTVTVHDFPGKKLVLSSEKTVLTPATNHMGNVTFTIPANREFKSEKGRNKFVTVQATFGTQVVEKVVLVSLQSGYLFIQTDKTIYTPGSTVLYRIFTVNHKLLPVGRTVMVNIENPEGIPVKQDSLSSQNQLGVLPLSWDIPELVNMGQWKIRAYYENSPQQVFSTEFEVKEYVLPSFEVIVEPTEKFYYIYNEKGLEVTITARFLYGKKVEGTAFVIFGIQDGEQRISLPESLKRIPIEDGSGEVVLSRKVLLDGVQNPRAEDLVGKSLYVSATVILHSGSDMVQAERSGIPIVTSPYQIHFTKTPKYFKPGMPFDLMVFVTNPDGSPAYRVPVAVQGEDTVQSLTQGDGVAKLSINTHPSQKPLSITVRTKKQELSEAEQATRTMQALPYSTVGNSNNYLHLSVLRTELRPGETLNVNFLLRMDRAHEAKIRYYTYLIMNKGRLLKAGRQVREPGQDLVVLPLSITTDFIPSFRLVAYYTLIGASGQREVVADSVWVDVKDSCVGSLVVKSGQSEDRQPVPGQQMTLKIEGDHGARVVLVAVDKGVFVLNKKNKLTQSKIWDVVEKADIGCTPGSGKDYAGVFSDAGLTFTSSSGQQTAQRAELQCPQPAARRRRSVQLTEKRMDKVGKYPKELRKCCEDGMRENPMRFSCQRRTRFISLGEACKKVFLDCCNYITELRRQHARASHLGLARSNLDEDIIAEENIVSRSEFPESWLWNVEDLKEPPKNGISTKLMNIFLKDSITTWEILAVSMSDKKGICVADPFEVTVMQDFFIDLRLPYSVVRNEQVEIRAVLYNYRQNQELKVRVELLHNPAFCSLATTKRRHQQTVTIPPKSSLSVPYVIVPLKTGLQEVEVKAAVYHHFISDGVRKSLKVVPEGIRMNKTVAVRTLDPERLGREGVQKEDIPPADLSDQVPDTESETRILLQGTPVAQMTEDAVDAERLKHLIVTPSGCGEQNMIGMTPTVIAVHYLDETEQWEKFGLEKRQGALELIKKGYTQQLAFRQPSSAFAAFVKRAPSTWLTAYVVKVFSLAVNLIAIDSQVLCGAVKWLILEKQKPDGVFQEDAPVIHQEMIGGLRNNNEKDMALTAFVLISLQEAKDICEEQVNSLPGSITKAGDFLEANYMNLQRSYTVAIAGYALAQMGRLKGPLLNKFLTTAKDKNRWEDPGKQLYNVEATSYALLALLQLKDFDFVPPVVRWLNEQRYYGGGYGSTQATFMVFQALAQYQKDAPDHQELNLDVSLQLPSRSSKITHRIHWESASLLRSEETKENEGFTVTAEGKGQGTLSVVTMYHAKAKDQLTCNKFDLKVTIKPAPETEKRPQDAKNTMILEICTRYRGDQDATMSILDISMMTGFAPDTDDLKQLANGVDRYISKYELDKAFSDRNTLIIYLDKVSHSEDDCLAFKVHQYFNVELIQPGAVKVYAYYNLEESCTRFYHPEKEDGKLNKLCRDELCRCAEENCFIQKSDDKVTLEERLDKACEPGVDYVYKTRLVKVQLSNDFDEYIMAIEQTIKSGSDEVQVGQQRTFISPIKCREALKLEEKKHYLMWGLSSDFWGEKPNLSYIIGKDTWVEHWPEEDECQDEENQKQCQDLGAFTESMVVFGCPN

[5] = biological target: T2, C3 protein (UniProt P01024 23-1663, limits assumed); assay: method not stated (Table 1; target C3 implied)
T2 construct: also called complement component C3; plasma protein C3
T2 sequence (P01024 23-1663 limits assumed): as the sequence (P01024 23-1663) above

## CC[C@H](C)[C@H](NC(=O)[C@@H]1CSSC[C@H](NC(=O)[C@@H](NC(=O)[C@@H](N)Cc2ccc(O)cc2)[C@@H](C)CC)C(=O)N[C@@H]([C@@H](C)CC)C(=O)N[C@@H](Cc2c[nH]c3ccccc23)C(=O)N[C@@H](CCC(N)=O)C(=O)N[C@@H](CC(=O)O)C(=O)N[C@@H](Cc2c[nH]c3ccccc23)C(=O)NCC(=O)N[C@@H](C)C(=O)N[C@@H](Cc2c[nH]cn2)C(=O)N[C@@H](CCCNC(=N)N)C(=O)N1)C(=O)N[C@@H](CCCCN)C(=O)N[C@@H](CCCCN)C(=O)N[C@@H](CCCCN)C(=O)O [Cp50] (HELM PEPTIDE1{Y.I.C.I.W.Q.D.W.G.A.H.R.C.I.K.K.K}$PEPTIDE1,PEPTIDE1,3:R3-13:R3$$$V2.0; N-terminus and C-terminus assumed)
[1]
  solubility: > 250 mg/mL
[2]
  Kd: 0.5 nM
[3]; Weeks 4, 6, 8 and 12, intravitreal injection on Day 15
  mean Grade 4 lesion compared to eyes treated with vehicle: reduced
[3]; by week 6
  CNV lesion size, % of baseline: 50%
[3]; by week 12
  CNV lesion size, % of baseline: 25%
[3]; two Cp50-treated eyes, as early as week 4 post laser-induced CNV
  CNV lesion size: decline
[3]; two Cp50-treated eyes, from week 6 onwards until week 12
  reduction of Grade 4 lesion ratios: 100%

## CC[C@H](C)[C@H](NC(=O)[C@H](N)Cc1ccc(O)cc1)C(=O)N[C@H]1CSSC[C@@H](C(=O)N(C)[C@H](C(N)=O)[C@@H](C)CC)NC(=O)[C@H](CCCNC(=N)N)NC(=O)[C@H](Cc2c[nH]cn2)NC(=O)[C@H](C)NC(=O)CN(C)C(=O)[C@H](Cc2c[nH]c3ccccc23)NC(=O)[C@H](CC(=O)O)NC(=O)[C@H](CCC(N)=O)NC(=O)[C@H](Cc2cn(C)c3ccccc23)NC(=O)[C@H](C(C)C)NC1=O [Cp40, dTyr-Ile-[Cys-Val-1MeTrp-Gln-Asp-Trp-Sar-Ala-His-Arg-Cys]-mIle, reference compound]
[1]
  Solubility DPBS: 0.8 mg/mL (≈ 0.447 mM)

## CC[C@H](C)[C@H](NC(=O)[C@@H]1CSSC[C@H](NC(=O)[C@@H](NC(=O)[C@@H](N)Cc2ccc(O)cc2)[C@@H](C)CC)C(=O)N[C@@H]([C@@H](C)CC)C(=O)N[C@@H](Cc2c[nH]c3ccccc23)C(=O)N[C@@H](CCC(N)=O)C(=O)N[C@@H](CC(=O)O)C(=O)N[C@@H](Cc2c[nH]c3ccccc23)C(=O)NCC(=O)N[C@@H](CCC(=O)O)C(=O)N[C@@H](Cc2c[nH]cn2)C(=O)N[C@@H](CCCNC(=N)N)C(=O)N1)C(=O)N[C@@H](CCCCN)C(=O)N[C@@H](CCCCN)C(=O)N[C@@H](CCCCN)C(=O)O [Cp51] (HELM PEPTIDE1{Y.I.C.I.W.Q.D.W.G.E.H.R.C.I.K.K.K}$PEPTIDE1,PEPTIDE1,3:R3-13:R3$$$V2.0; N-terminus and C-terminus assumed)
[1]
  solubility: > 250 mg/mL

## CC[C@H](C)[C@H](N)C(=O)N[C@H]1CSSC[C@@H](C(=O)N[C@H](C(N)=O)[C@@H](C)O)NC(=O)[C@H](CCCN=C(N)N)NC(=O)[C@H](Cc2cnc[nH]2)NC(=O)[C@H](Cc2cnc[nH]2)NC(=O)CNC(=O)[C@H](Cc2c[nH]c3ccccc23)NC(=O)[C@H](CC(=O)O)NC(=O)[C@H](CCC(N)=O)NC(=O)[C@H](C(C)C)NC(=O)[C@H](C(C)C)NC1=O [Compstatin]
[4]
  binding affinity for C3: micromolar

B1: Cp51 (peptide)
peptide: YICIWQDWGEHRCIKKK
modifications: disulfide 3-13
[5]
  Kd: 1 nM

Reference: patent US20260191991A1, “COMPSTATIN ANALOGS FOR VECTOR-BASED THERAPY” (AMYNDAS PHARMACEUTICALS US LLC, priority 2022, published 2026)
